# Results published in article PMC7367283, “A PIP2 substitute mediates voltage sensor-pore coupling in KCNQ activation” (Communications Biology, 2020).
# pEC50: −log10 of the molar value. “And” between values parts separate entries of the source, which are not always exact repeats. Identical values can stand only once.
# Biological target: T1, IKs current (Chromanol 293B sensitive current) (Cavia porcellus, UniProt O70344)
# T1 construct: Single ventricular myocytes were acutely enzymatically isolated from guinea pig heart; endogenous in cells; host or cells: freshly isolated guinea pig ventricular myocytes
# T1 sequence (O70344 1-671): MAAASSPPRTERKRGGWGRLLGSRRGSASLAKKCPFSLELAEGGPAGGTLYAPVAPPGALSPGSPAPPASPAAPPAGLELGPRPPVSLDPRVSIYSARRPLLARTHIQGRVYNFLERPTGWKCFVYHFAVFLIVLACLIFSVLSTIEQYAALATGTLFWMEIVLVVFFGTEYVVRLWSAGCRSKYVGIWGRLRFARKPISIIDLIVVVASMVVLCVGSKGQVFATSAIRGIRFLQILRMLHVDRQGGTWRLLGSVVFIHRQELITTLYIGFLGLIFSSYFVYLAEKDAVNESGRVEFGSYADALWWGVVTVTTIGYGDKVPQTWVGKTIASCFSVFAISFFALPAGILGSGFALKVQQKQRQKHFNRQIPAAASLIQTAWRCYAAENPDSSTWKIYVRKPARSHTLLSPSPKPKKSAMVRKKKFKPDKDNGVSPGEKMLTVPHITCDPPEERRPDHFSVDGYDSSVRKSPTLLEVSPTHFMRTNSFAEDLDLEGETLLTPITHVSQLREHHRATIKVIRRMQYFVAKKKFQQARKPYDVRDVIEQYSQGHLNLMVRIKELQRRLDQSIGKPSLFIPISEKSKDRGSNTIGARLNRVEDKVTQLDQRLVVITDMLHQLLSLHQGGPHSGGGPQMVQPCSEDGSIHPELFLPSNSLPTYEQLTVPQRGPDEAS
# Assay: IKs measurements in isolated ventricular cells (whole-cell patch clamp);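 as to IKs current against voltage, source data Fig. 7d: tail currents measured at the -20 mV return potential after each test voltage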
# Format: cell-based, guinea pig
# Set-up: key to IKs current against time, source data Fig. 7b: IKs current normalized to cell capacitance (current density)
# Conditions: for IKs current against voltage, source data Fig. 7d / IKs current against time, source data Fig. 7b: individual cells
# Excerpt: The KCNQ1 and KCNE1 complex forms the cardiac IKs channel, which is important in terminating cardiac action potentials and regulating heart rate[1],[2],[13]. We tested if CP1 modulates the IKs channel in cardiac myocytes. Similar to the results from KCNQ1 + KCNE1 expressed in Xenopus oocytes, in guinea pig ventricular myocyte CP1 enhanced IKs current (Chromanol 293B sensitive current) amplitude (Fig. 7a–c), shifted the G–V relation to more negative voltages (Fig. 7d, e), and slowed the kinetics of deactivation (Fig. 7a).
# Fig. 7 Effects of CP1 on IKs and action potentials in cardiomyocytes. a IKs currents in guinea pig ventricular myocytes in the absence and presence of 30 µM CP1 in the whole-cell patch-clamp configuration. Holding potential: −40 mV; testing potentials: −20 to +60 mV with 10-mV increment; returning potential: −20 mV. […] Guinea pig ventricular myocytes were first perfused with 10 µM CP1 and 10 µM chromanol. After APD reached steady state, 10 µM CP1 was constitutively perfused alone. Last, CP1 was washed out for near-full reversal of APD shortening. g Effects of 0.2 µM CP1 on LQT action potentials. To mimic the LQT, 100 µM moxifloxacin was applied 2 h before the treatment of CP1. h Change of action potential duration after application of different [CP1]s (n = 5–7). Tukey–Kramer ANOVA test was used to compare control cells in different CP1 concentration, # is significant at P < 0.05. Unpaired two-tailed Student t tests were used to compare control and moxifloxacin cells at different CP1 concentration: * is significant at P < 0.05.
# The use of guinea pigs was approved by the Stony Brook University Institutional Animal Care and Use Committee. Single ventricular myocytes were acutely enzymatically isolated from guinea pig heart as previously described. Guinea pigs, weighing 300–500 g, were sacrificed by peritoneal injection of sodium pentobarbitone (1 ml, 390 mg/ml). The isolated cells were stored in KB solution containing (in mM) 83 KCl, 30 K2HPO4, 5 MgSO4, 5 Na pyruvate, 5 β-OH-butyric acid, 20 creatine, 20 taurine, 10 glucose, and 0.5 EGTA, pH 7.2.
# An Axopatch 1D amplifier (Axon Instruments, Inc.) and the whole-cell patch-clamp technique were used to measure the IKs current. The patch pipette solution contained (in mM) 140 KMeSO3, 20 HEPES, 2 KCl, 5 EGTA, and 5 MgATP, pH 7.4. The external Tyrode contains (in mM) 137.7 NaCl, 2.3 NaOH, 8 KCl, 1 MaCl2, 5 HEPES, 1 CdCl2, and 10 Glucose, pH 7.4. The cells were held at −40 mV and stepped to −20 mV, then to +60 mV with an increment of 10 mV, to measure the membrane current in the absence and the presence of chromanol 293B (10 μM). The chromanol 293B sensitive current was defined as the IKs current normalized to its cell capacitance. These experimental protocols and conditions eliminate most of the other membrane currents, such as IP, INa, ICa, and INa/Ca, except IK, so that we could obtain better experiment resolution.
# Electrophysiology data were processed with IGOR (Wavemetrics, Lake Oswego, OR), Clampfit (Molecular Devices, Sunnyvale, CA), and SigmaPlot (SPSS, Inc., San Jose, CA). Normalized tail currents were plotted versus prepulse voltage and fitted with the Boltzmann function G = G0 + 1/(1 + exp(V − V1/2)/S), where G0 is the minimum conductance, V1/2 is the half-maximal voltage of activation, and S is the slope factor. Dose–response curves in Fig. 3 were fitted with the Hill equation, E = […], where EC50 is the drug concentration producing the half-maximum response and P is the Hill coefficient. In Fig. 7c, e, the EC50 values were obtained by fitting the data to IKs = IMin + (IMax − IMin) ([CP1]/([CP1] + EC50)) and V1/2 = V1/2 min + (V1/2Max − V1/2 min) ([CP1]/([CP1] + EC50)). The deactivation time course was fitted with single-exponential function. All data are expressed as mean ± SEM (n ≥ 3 or otherwise indicated). […]
compound,measurement,setting,value
"O=S(=O)([O-])Oc1c(-c2sc3c(ccc4cccc(Cl)c43)c2OS(=O)(=O)[O-])[nH]c2ccc(Br)cc12.[Na+].[Na+] [CP1, DISODIUM 5-BROMO-2-[9-CHLORO-3-(SULFONATOOXY) NAPHTHO [1,2-B] THIEN-2-YL]-1H-INDOL-3-YL SULFATE]","IKs current against voltage, source data Fig. 7d","0.2 µM CP1, V 0 mV",0.1478 and -0.1008 and 0.4867 and 0.5994 and 0.4202 and 0.2428
same,"IKs current against voltage, source data Fig. 7d","0.2 µM CP1, V 10 mV",0.1364 and -8.00E-03 and 0.5359 and 0.687 and 0.4359 and 0.4419
same,"IKs current against voltage, source data Fig. 7d","0.2 µM CP1, V 20 mV",0.5204 and 0.1788 and 0.7643 (2×) and 0.8582 and 0.5444
same,"IKs current against voltage, source data Fig. 7d","0.2 µM CP1, V 30 mV",0.487 and 0.358 and 1.0844 and 1.2573 and 1.0686 and 0.7892
same,"IKs current against voltage, source data Fig. 7d","0.2 µM CP1, V 40 mV",1.432 and 0.5726 and 1.6914 and 1.171 and 1.2536 and 1.1694
same,"IKs current against voltage, source data Fig. 7d","0.2 µM CP1, V 50 mV",1.7002 and 1.1486 and 1.9537 (2×) and 1.6685 and 1.6372
same,"IKs current against voltage, source data Fig. 7d","0.2 µM CP1, V 60 mV",2.1519 and 1.35 and 2.301 (2×) and 1.8192 and 1.8132
same,"IKs current against voltage, source data Fig. 7d","0.2 µM CP1, V -10 mV",0.058 and -0.1764 and 0.4431 and 0.2854 and 0.2431 and 0.2625
same,"IKs current against voltage, source data Fig. 7d","0.2 µM CP1, V -20 mV",-0.0553 and -0.0272 and 0.3362 and 0.2344 and 0.1098 and 0.1296
same,"IKs current against time, source data Fig. 7b","0.2 µM CP1, time 0.5 s",-0.15 and 2.22E-03 and 0.4227 and 0.5059 and 0.5369 and 0.8337
same,"IKs current against time, source data Fig. 7b","0.2 µM CP1, time 1.5 s",1.1736 and 1.2252 and 1.6869 and 1.7762 and 1.8153 and 1.921
same,"IKs current against time, source data Fig. 7b","0.2 µM CP1, time 2.5 s",2.3476 and 2.2614 and 2.5619 and 2.5792 and 2.5781 and 2.9902
same,"IKs current against time, source data Fig. 7b","0.2 µM CP1, time 3.5 s",4.1533 and 3.1046 and 3.3699 and 3.1301 and 3.5796 and 4.2972
same,"IKs current against time, source data Fig. 7b","0.2 µM CP1, time 4.5 s",4.9536 and 3.6388 and 3.9362 and 3.649 and 4.0225 and 4.5344
same,"IKs current against voltage, source data Fig. 7d","6 µM CP1, V 0 mV",0.1828 and 0.4288 and 0.6932 and 0.8299 and 0.4703 and 1.0496
same,"IKs current against voltage, source data Fig. 7d","6 µM CP1, V 10 mV",0.4205 and 0.6933 and 0.9149 and 1.2568 and 0.6403 and 1.5345
same,"IKs current against voltage, source data Fig. 7d","6 µM CP1, V 20 mV",0.8957 and 1.1412 and 1.496 and 1.8852 and 1.1797 and 2.1199
same,"IKs current against voltage, source data Fig. 7d","6 µM CP1, V 30 mV",2.1345 and 1.6765 and 2.1151 and 2.7982 and 1.9302 and 2.5318
same,"IKs current against voltage, source data Fig. 7d","6 µM CP1, V 40 mV",3.0845 and 2.1666 and 2.3348 and 3.4682 and 2.4976 and 3.0115
same,"IKs current against voltage, source data Fig. 7d","6 µM CP1, V 50 mV",3.95 and 2.5666 and 2.4371 and 4.0362 and 3.2962 and 3.3006
same,"IKs current against voltage, source data Fig. 7d","6 µM CP1, V 60 mV",4.0182 and 2.7319 and 3.0293 and 4.3101 and 3.6782 and 3.5497
same,"IKs current against voltage, source data Fig. 7d","6 µM CP1, V -10 mV",0.0746 and 0.3017 and 0.5691 and 0.6051
same,"IKs current against time, source data Fig. 7b","6 µM CP1, time 0.5 s",2.2824 and 1.9027 and 1.3849 and 1.6373 and 2.0899 and 2.4967
same,"IKs current against time, source data Fig. 7b","6 µM CP1, time 1.5 s",5.0013 and 4.6878 and 3.7768 and 4.1793 and 4.2368 and 4.8342
same,"IKs current against time, source data Fig. 7b","6 µM CP1, time 2.5 s",7.088 and 6.1654 and 5.3805 and 5.9272 and 5.6946 and 5.9483
same,"IKs current against time, source data Fig. 7b","6 µM CP1, time 3.5 s",7.9334 and 7.0333 and 6.1833 and 7.248 and 6.5654 and 6.4263
same,"IKs current against time, source data Fig. 7b","6 µM CP1, time 4.5 s",8.5672 and 7.9674 and 7.2346 and 7.483 and 7.0133 and 6.9913
same,"IKs current against time, source data Fig. 7b","30 µM CP1, time 0.5 s",7.2666 and 7.1831 and 9.1229 and 4.6448 and 5.4151 and 6.3301 and 8.2811
same,"IKs current against time, source data Fig. 7b","30 µM CP1, time 1.5 s",8.5502 and 9.0214 and 10.3674 and 6.9314 and 7.3351 and 7.6047 and 9.524
same,"IKs current against time, source data Fig. 7b","30 µM CP1, time 2.5 s",9.051 and 9.8065 and 11.122 and 8.4037 and 8.6405 and 8.1616 and 9.9386
same,"IKs current against time, source data Fig. 7b","30 µM CP1, time 3.5 s",9.3536 and 10.9247 and 11.9708 and 9.4071 and 9.5173 and 8.9351 and 10.1733
same,"IKs current against time, source data Fig. 7b","30 µM CP1, time 4.5 s",10.006 and 11.718 and 12.1269 and 10.5686 and 10.3666 and 9.5544 and 10.5156
same,pEC50,"at +60 mV, read-out: EC50 of IKs current amplitude",5.12
